We go through 30 molecules from PubChem BioAssay AID790 (SRMLSC, 2007).

A short description of test [1]: vps1Δ single mutant yeast growth suppression – S. cerevisiae, background strain comparison, dose response (AID 790). As to conditions: S. cerevisiae vps1Δ mutant growth inhibition; measured here: background strain growth inhibition.
Test [2] has as its system S. cerevisiae vps1Δ mutant growth inhibition. The test is described as above.

Activity calls are given as the source filed them. How the calls were made is not given here.

For orientation: IC50 means the midpoint of a concentration-inhibition curve. In the case of `CCCC(=O)Nc1ccc(Cl)c(NC(=O)c2cccnc2Cl)c1`, the IC50 in test [1] was > 10 µM; in test [2] it was > 10 µM (inactive).

`Cc1cc(OCC(F)(F)C(F)(F)C(F)(F)C(F)(F)C(F)(F)C(F)F)nc(N)n1`: the IC50 in test [1] was > 10 µM; in test [2], > 10 µM (inactive).

For `Cc1cc(=O)oc2c(CN3CCCCC3)c(O)c(Cl)cc12`, the concentration for half-maximal inhibition (IC50) in test [1] is > 10 µM; in test [2] it was > 10 µM (inactive).

As for `CCN1CCN(c2c(Cl)cccc2NC(=O)c2ccc(Br)o2)CC1`, the values for the IC50 in test [1] and in test [2] were > 10 µM and > 10 µM (inactive), respectively.

As to `Cc1ccc(SC(=O)COc2ccc(C)c(C)c2)cc1`, the IC50 in test [1] was > 10 µM; in test [2], > 10 µM (inactive).

In the case of `CC(=O)c1ccc(N2CCN(C(=O)c3ccc(Br)cc3)CC2)c(F)c1`, the IC50 in test [1] is 6.58 µM; in test [2], 1.52 µM.

As for `Cc1cc(NCCCN2CCOCC2)n2ncc(-c3ccc(Cl)cc3)c2n1`, the 50% inhibitory concentration (IC50) in test [1] is > 10 µM; in test [2] it was > 10 µM (inactive).

With `O=[N+]([O-])c1cc(C(F)(F)F)ccc1N/N=C/c1cc2ccccc2nc1Cl`, the IC50 in test [1] is > 10 µM; in test [2] it was > 10 µM (inactive).

`COc1ccc(NC(=O)c2ccc(CN3CCN(c4ccccc4)CC3)cc2)cc1`: the IC50 was > 10 µM in test [1] and > 10 µM (inactive) in test [2].

For the molecule `c1ccc(Nc2cc(-c3ccccc3)nc3ncnn23)cc1`, the IC50 in test [1] is > 10 µM; in test [2], 5.22 µM.

For `Cc1cc(C(C)(C)C)ccc1OCCN1CCCC1`, the IC50 was > 10 µM in test [1] and > 10 µM (inactive) in test [2].

Regarding `O=C(Nc1nnc(-c2ccccc2)o1)c1ccc(Cl)cc1`, the IC50 in test [1] was 0.65 µM; in test [2], 0.418 µM.

With `Cc1ccc(C(=O)c2c(NC(=O)c3ccncc3)sc3c2CCCC3)cc1`, the concentration for half-maximal inhibition (IC50) in test [1] is > 10 µM; in test [2], > 10 µM (inactive).

As to `O=C(c1ccco1)N1CCN=C1SCc1cccnc1`, the half-inhibitory concentration (IC50) is > 10 µM in test [1] and > 10 µM (inactive) in test [2].

Consider `Cc1cc(C)nc(NC(=O)CSc2nn(C)c(=S)s2)n1`, for which the IC50 in test [1] was > 10 µM; in test [2], > 10 µM (inactive).

As to `Cn1c(=O)c2nc(NCc3ccccc3)cnc2n(C)c1=O`, the IC50 was > 10 µM in test [1] and > 10 µM (inactive) in test [2].

Consider `COc1ccc2oc(=O)c(-c3nnc(NCc4ccco4)s3)cc2c1`, for which the IC50 was > 10 µM in test [1] and > 10 µM (inactive) in test [2].

For the molecule `Cc1ccc(Cl)c(OCCCCN(C)Cc2ccccc2)c1`, the IC50 in test [1] is > 10 µM; in test [2] it was > 10 µM (inactive).

For `CCn1c(=O)[nH]c2cc(C(=O)N3CCN(c4ccccc4)CC3)ccc2c1=O`, the IC50 is > 10 µM in test [1] and > 10 µM (inactive) in test [2].

`N#CC1=C(N)NC(SCc2ccc(F)cc2)=C(C#N)C12CCCCC2`: the IC50 is 16.3 µM in test [1] and 2.12 µM in test [2].

In the case of `CCOC(=O)COc1ccccc1C1Nc2ccccc2C(=O)N1c1cccc(Cl)c1` (stereo not given), the IC50 was > 10 µM in test [1] and > 10 µM (inactive) in test [2].

In the case of `CCOC(=O)Cn1cc(C=O)c2ccccc21`, the IC50 in test [1] was > 10 µM; in test [2], > 10 µM (inactive).

For the molecule `COC(=O)c1ccc(CSc2nnc(NC(C)C)s2)cc1`, the IC50 in test [1] is > 10 µM; in test [2] it was > 10 µM (inactive).

In the case of `O=C(N/N=C/c1ccc(OC(=O)c2ccccc2)cc1)c1ccc(CN2CCOCC2)cc1`, the IC50 in test [1] was > 10 µM; in test [2] it was > 10 µM (inactive).

As to `CCN(CC)c1nc2cc(OC)ccc2cc1C#N`, the IC50 was > 10 µM in test [1] and > 10 µM (inactive) in test [2].

As to `CCN(CC)CCn1nc(C)nc1-c1ccccc1O`, the IC50 in test [1] is > 10 µM; in test [2], > 10 µM (inactive).

For the molecule `Clc1cc(Br)ccc1OCCOCCN1CCOCC1`, the IC50 in test [1] was > 10 µM; in test [2], > 10 µM (inactive).

Regarding `O=Cc1cc2ccccc2nc1SCc1ccc(Cl)cc1`, the IC50 in test [1] was > 10 µM; in test [2] it was > 10 µM (inactive).

In the case of `O=C(NCCSCc1ccc(Cl)cc1Cl)c1ccc(CN2CCOCC2)cc1`, the IC50 in test [1] was > 10 µM; in test [2], > 10 µM (inactive).

Turning to `CCC(C)(C)NC(=O)CN(C(=O)CCC(=O)Nc1ccccn1)c1ccc(F)c(Cl)c1`, the results for the IC50 in test [1] and in test [2] were > 10 µM and > 10 µM (inactive), respectively.
